Assay results: patent US9884823B2, “Oxime ether acetate compound, preparation method therefor and weeding application thereof” (ZHEJIANG UNIVERSITY OF TECHNOLOGY, priority 2014, dated 2018)
Where two headings read alike, the source gives them in different places.

Tests used:
[1] = test system: Wheat; assay: Culture dish method (general screening); format: in vivo; conditions: 100 mg/L, 7 days
Source text: (§3) Culture dish method (general screening): The test targets were radish, cucumber, rape, wheat, sorghum and barnyard grass; the seeds of wheat, sorghum and radish were germinated in advance, and the uniform emerge-germinating seeds were used in the test.

[2] = test system: Chinese sorghum; assay: Culture dish method (general screening); format: in vivo; conditions: 100 mg/L, 7 days
Source text: as §3

[3] = test system: Barnyardgrass; assay: Culture dish method (general screening); format: in vivo, barnyard grass; conditions: 100 mg/L, 7 days
Source text: as §3

[4] = test system: Cucumber; assay: Culture dish method (general screening); format: in vivo; conditions: 100 mg/L, 7 days
Source text: as §3

[5] = test system: Rape; assay: Culture dish method (general screening); format: in vivo; conditions: 100 mg/L, 7 days
Source text: as §3

[6] = test system: Radish; assay: Culture dish method (general screening); format: in vivo; conditions: 100 mg/L, 7 days
Source text: as §3

[7] = test system: Abutilon; assay: Potted plants live body test; format: in vivo
Source text: (§1) The raw drug which was selected from the compounds in table 1 was weighed using an analytical balance (0.0001 g), and dissolved in DMF containing 1 wt % Tween-80 emulsifier to prepare a mother liquor of raw drug with a mass concentration of 1.0˜5.0%, and then diluted with distilled water, to prepare preparations at desired concentrations according to the ratio of ingredients in Examples 8, 9 and 10.
(§2) The test targets were mustard, small quinoa, Abutilon, amaranthus retroflexus, Eclipta prostrata, crabgrass, dog point. A pot with a diameter of 7.5 cm was used, filled with composite soil (garden soil:nursery matrix, 1:2, v/v) to ¾ of the pot, then the above […] kinds of weeds targets were directly seeded (germination rate ≧85%), covered with soil at a thickness of 0.2 cm. When the weeds grew to 3-leaf stage, pre-emergence soil treatment for weeds planting, and then spraying was performed.

[8] = test system: Crabgrass; assay: Potted plants live body test; format: in vivo
Source text: as §1, §2

[9] = test system: Dog point; assay: Potted plants live body test; format: in vivo
Source text: as §1, §2

[10] = test system: Eclipta prostrata; assay: Potted plants live body test; format: in vivo; conditions: for efficiency, Eclipta prostrata: 30 days, Table 9
Source text: as §1, §2

[11] = test system: amaranthus retroflexus; assay: Potted plants live body test; format: in vivo
Source text: as §1, §2

[12] = test system: Barnyardgrass; assay: Potted plants live body test; format: in vivo, barnyard grass
[13] = test system: Small quinoa; conditions: 150 g a.i./ha, 30 days, Table 9
Source text: as §1, §2

[14] = test system: broadleaf weeds such as mustard, small quinoa, Abutilon, Amaranthus retroflexus and Eclipta prostrate; conditions: 150 g a.i./ha
Source text: as §1, §2

[15] = test system: grass weeds such as crabgrass, barnyard grass, dog point
Source text: as §1, §2

[16] = test system: weeds; conditions: pre-emergence soil treatment; dose lowered below 150 g a.i./ha
Source text: as §1, §2

[17] = test system: Mustard; conditions: 150 g a.i./ha, 30 days, Table 9
[18] = test system: Corn; conditions: post-emergence spray treatment
[19] = test system: Soybean; conditions: 150 g a.i./ha; post-emergence spray treatment
[20] = test system: Cotton; conditions: 150 g a.i./ha; post-emergence spray treatment
[21] = test system: Rice; conditions: 150 g a.i./ha; post-emergence spray treatment
[22] = test system: Rape; conditions: 150 g a.i./ha; post-emergence spray treatment
[23] = test system: Barley; conditions: post-emergence spray treatment
[24] = Postemergence spraying, 150 g a.i./ha, 30 days, Table 9
[25] = Pre-emergence soil treatment, 37.5 g a.i./ha
[26] = Pre-emergence soil treatment, 75 g a.i./ha
[27] = Pre-emergence soil treatment, 150 g a.i./ha, 30 days, Table 9
[28] = Pre-emergence soil treatment, 150 g a.i./ha, Table 10
[29] = postemergence spraying, 37.5 g a.i./ha
[30] = postemergence spraying, 75 g a.i./ha
[31] = postemergence spraying, 150 g a.i./ha, Table 10

## CON=C(C(=O)OC)c1ccccc1COc1ccc(-c2ncc(Cl)cc2Cl)cc1 [Compound 133]
[1]; root
  inhibition rate, Wheat Root: 50%
[1]; stem
  inhibition rate, Wheat Stem: 0%
[2]; root
  inhibition rate, Chinese sorghum Root: 100%
[2]; stem
  inhibition rate, Chinese sorghum Stem: 100%
[3]; root
  inhibition rate, Barnyardgrass Root: 100%
[3]; stem
  inhibition rate, Barnyardgrass Stem: 100%
[4]; root
  inhibition rate, Cucumber Root: 100%
[4]; stem
  inhibition rate, Cucumber Stem: 100%
[5]; root
  inhibition rate, Rape Root: 100%
[5]; stem
  inhibition rate, Rape Stem: 100%
[6]; root
  inhibition rate, Radish Root: 100%
[6]; stem
  inhibition rate, Radish Stem: 100%
[7]; [24]
  efficiency, Abutilon: 100%
[7]; [25]
  efficiency, Abutilon: 0%
[7]; [26]
  efficiency, Abutilon: 0%
[7]; [27]
  efficiency, Abutilon: 100%
[7]; [28]
  efficiency, Abutilon: 100%
[7]; [29]
  efficiency, Abutilon: 100%
[7]; [30]
  efficiency, Abutilon: 100%
[7]; [31]
  efficiency, Abutilon: 100%
[7]; postemergence treatment, over doses 150, 75, 37.5 g a.i./ha
  efficiency on Abutilon: 100%
[8]; [24]
  efficiency, Crabgrass: 0%
[8]; [25]
  efficiency, Crabgrass: 0%
[8]; [26]
  efficiency, Crabgrass: 0%
[8]; [27]
  efficiency, Crabgrass: 50%
[8]; [28]
  efficiency, Crabgrass: 50%
[8]; [29]
  efficiency, Crabgrass: 0%
[8]; [30]
  efficiency, Crabgrass: 0%
[8]; [31]
  efficiency, Crabgrass: 0%
[9]; [24]
  efficiency, Dog point: 0%
[9]; [25]
  efficiency, Dog point: 0%
[9]; [26]
  efficiency, Dog point: 0%
[9]; [27]
  efficiency, Dog point: 50%
[9]; [28]
  efficiency, Dog point: 50%
[9]; [29]
  efficiency, Dog point: 0%
[9]; [30]
  efficiency, Dog point: 0%
[9]; [31]
  efficiency, Dog point: 0%
[10]; Postemergence spraying, 150 g a.i./ha
  efficiency, Eclipta prostrata: 100%
[10]; [25]
  efficiency, Eclipta prostrate: 0%
[10]; [26]
  efficiency, Eclipta prostrate: 0%
[10]; Pre-emergence soil treatment, 150 g a.i./ha
  efficiency, Eclipta prostrata: 100%
[10]; [28]
  efficiency, Eclipta prostrate: 100%
[10]; [29]
  efficiency, Eclipta prostrate: 97.5%
[10]; [30]
  efficiency, Eclipta prostrate: 100%
[10]; [31]
  efficiency, Eclipta prostrate: 100%
[11]; [24]
  efficiency, amaranthus retroflexus: 100%
[11]; [25]
  efficiency, amaranthus retroflexus: 20%
[11]; [26]
  efficiency, amaranthus retroflexus: 30%
[11]; [27]
  efficiency, amaranthus retroflexus: 100%
[11]; [28]
  efficiency, amaranthus retroflexus: 100%
[11]; [29]
  efficiency, amaranthus retroflexus: 100%
[11]; [30]
  efficiency, amaranthus retroflexus: 100%
[11]; [31]
  efficiency, amaranthus retroflexus: 100%
[12]; [25]
  efficiency, Barnyardgrass: 0%
[12]; [26]
  efficiency, Barnyardgrass: 0%
[12]; [28]
  efficiency, Barnyardgrass: 0%
[12]; [29]
  efficiency, Barnyardgrass: 0%
[12]; [30]
  efficiency, Barnyardgrass: 0%
[12]; [31]
  efficiency, Barnyardgrass: 0%
[13]; Postemergence spraying
  efficiency, Small quinoa: 100%
[13]; Pre-emergence soil treatment
  efficiency, Small quinoa: 100%
[14]; 30 days
  inhibition rate on the growth of broadleaf weeds: 100%
[14]; 30 days after administration, Table 9 summary
  herbicidal activity on broadleaf weeds targets: herbicidal activity
[14]; postemergence spraying, 30 days, vs clear water control
  activity on the growth of broadleaf weeds: inhibitory activity
[15]; 150 g a.i./ha, 30 days after administration, Table 9 summary
  activity for grass targets such as crabgrass and dog point: poor activity
[15]; postemergence spraying, 150 g a.i./ha, 30 days
  activity on grass weeds such as crabgrass, dog point: almost have no activity
[15]; postemergence treatment, 150, 75, 37.5 g a.i./ha
  activity on crabgrass, barnyard grass, dog point: not good activity or no activity
[15]; pre-emergence soil treatment, 150 g a.i./ha
  activity on grass weeds: not good activity
[16]
  activity on 6 kinds of weed targets: significantly decreased activity or no activity
[17]; Postemergence spraying
  efficiency, Mustard: 100%
[17]; Pre-emergence soil treatment
  efficiency, Mustard: 100%
[18]; 150 g a.i./ha
  Crop inhibition rate, Corn: 0%
[18]
  crop safety for corns: safer
[19]
  Crop inhibition rate, Soybean: 40%
[20]
  Crop inhibition rate, Cotton: 50%
[21]
  Crop inhibition rate, Rice: 30%
[22]
  Crop inhibition rate, Rape: 100%
[23]; 150 g a.i./ha
  Crop inhibition rate, Barley: 0%
[23]
  crop safety for barleys: safer
